Measured values from PMC7602288, “Characterization of Novel Dipeptidyl Peptidase-IV Inhibitory Peptides from Soft-Shelled Turtle Yolk Hydrolysate Using Orthogonal Bioassay-Guided Fractionations Coupled with In Vitro and In Silico Study” (Pharmaceuticals, 2020).
Like-named read-outs stand apart in the source and are kept apart here. Peptide text beside a SMILES is read from it.

Experiments:
DPP-IV = settings: cited from earlier work
[1] = target: T1, human Dipeptidyl-peptidase (DPP-IV) (Homo sapiens, UniProt P27487); test: DPP-IV inhibitory assay (Gly-Pro-p-nitroanilide substrate, absorbance 405 nm); type: biochemical; settings: synthetic peptide; nonlinear regression, five concentrations
T1 construct: purchased Sigma Chemical Co. (St. Louis, MO, USA)
Text: Chinese soft-shelled turtle eggs were collected from Pingtung City, Taiwan. Pepsin (from porcine gastric mucosa), trypsin (from bovine pancreas), α-chymotrypsin (from bovine pancreas, thermolysin (from Geobacillus stearothermophilus), human Dipeptidyl-peptidase (DPP-IV), Gly-Pro-p-nitroaniline (GP_pNA), Iodoacetamide (IAM), and linagliptin were purchased from Sigma Chemical Co. (St. Louis, MO, USA). Formic acid (FA), acetonitrile (ACN), and ammonium bicarbonate (ABC) were acquired from J.T. Baker (Phillipsburg, NJ, USA). Sequencing grade modified trypsin was purchased from Promega (Madison, WI, USA). Trifluoroacetic acid (TFA) was acquired from Alfa Aesar (Lancashire, UK), and Wang resin was obtained from Cleo Salus (Louisville, KY, USA). Deionized water (ddH2O) was collected using the PURELAB® water purification system from ELGA LabWater (Lane End, High Wycombe, UK). All other chemicals used in this study were of reagent grades. HyperSep Retain PEP Polymeric material was purchased from Thermo Scientific Inc. Molecular weight cut-off (3 kDa MWCO) was procured from Millipore (Bedford, MA, USA).
The DPP-IV inhibitory assay was analyzed in triplicate according to the method of Lacroix and Li-Chan using 96-well microplates with slight modification. […] Linagliptin was used as a reference inhibitor in this experiment. All the reagents and samples were dissolved in 1% DMSO buffer. […] The blank and negative control contained 25 µL of 1% DMSO and 25 µL of DPP-IV buffer. The reaction was activated by 50 µL of DPP-IV (1 U/µL) while the blank sample used 50 µL of DPP-IV buffer instead. After 1 h at 37 °C, the mixture was terminated using 100 µL of 1M sodium acetate buffer at pH 4.0. A concentration of peptide that can inhibit fifty percentage of DPP-IV activity was defined as the IC50 value of DPP-IV inhibition peptide. The IC50 value was determined using different concentrations of inhibitor by nonlinear regression of Graphpad Prism 5.0 (GraphPad Software, Inc., La Jolla, CA, USA).

[2] = target: T1, human Dipeptidyl-peptidase (DPP-IV); test: Stability of synthesized peptides against DPP-IV (pre-incubation experiment, LC-MS and inhibition assay); type: biochemical; settings: peptide 500 µM; for DPP-IV inhibitory activity, after pre-incubation: after pre-incubation with DPP-IV 3 h at 37 °C
Procedure: The synthetic peptide was pre-incubated with DPP-IV to determine stability against DPP-IV. […] According to the previous method by Nongonierma et al. with slight modification, 50 μL of peptides (500 µM) dissolved in 1% DMSO were pre-incubated with 100 μL of DPP-IV (1 U/μL) in DPP-IV buffer at 37 °C for 3 h. Consequently, 75 µL of pre-incubation mixture was combined with 25 µL of 2 mM NaOH and 25 µL of 1.6 mM Gly-Pro-p-nitroanilide, and further pre-incubated at 37 °C for 10 min. The mixture was added with 25 µL of DPP-IV buffer and then incubated at 37 °C for 60 min. The reaction was ended using 100 µL of 1M sodium acetate at pH 4.0. The absorbance of each reaction was measured at 405 nm in a SpectraMax 190 Microplate Reader (Molecular Devices, LLC, San Jose, CA, USA) to determine DPP-IV inhibitory activity of peptide after a pre-incubation period. The remaining 75 µL of the original mixture was heat-inactivated at 95 °C for 10 min to end enzyme activity after which it was injected into LC-MS to confirm the stability of the peptide.

T1 sequence (P27487 whole entry): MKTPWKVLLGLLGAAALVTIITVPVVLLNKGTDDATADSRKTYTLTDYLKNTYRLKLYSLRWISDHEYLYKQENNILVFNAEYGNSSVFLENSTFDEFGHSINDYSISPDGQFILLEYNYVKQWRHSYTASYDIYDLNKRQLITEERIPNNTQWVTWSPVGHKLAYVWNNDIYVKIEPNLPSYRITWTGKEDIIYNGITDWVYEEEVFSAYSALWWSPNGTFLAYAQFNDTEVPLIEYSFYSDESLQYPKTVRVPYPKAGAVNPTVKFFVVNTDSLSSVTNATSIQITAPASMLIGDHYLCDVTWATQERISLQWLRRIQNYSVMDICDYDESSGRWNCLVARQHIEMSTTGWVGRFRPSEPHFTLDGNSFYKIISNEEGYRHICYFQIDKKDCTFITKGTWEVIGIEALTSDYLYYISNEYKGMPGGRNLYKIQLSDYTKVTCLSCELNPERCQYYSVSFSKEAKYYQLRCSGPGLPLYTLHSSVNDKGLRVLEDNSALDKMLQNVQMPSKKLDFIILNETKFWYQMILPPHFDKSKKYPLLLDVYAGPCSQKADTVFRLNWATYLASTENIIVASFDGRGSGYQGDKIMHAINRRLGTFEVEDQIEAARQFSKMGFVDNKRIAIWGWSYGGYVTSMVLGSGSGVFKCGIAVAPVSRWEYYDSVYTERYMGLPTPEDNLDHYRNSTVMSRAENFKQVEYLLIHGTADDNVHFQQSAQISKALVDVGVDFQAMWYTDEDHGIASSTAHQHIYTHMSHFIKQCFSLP

## ILNKEGINY
DPP-IV; peptides from camel milk
  IC50: 348 µM

## CC(C)C[C@H](NC(=O)[C@@H]1CCCN1C(=O)[C@H](CC(C)C)NC(=O)CNC(=O)[C@@H](NC(=O)[C@@H](N)CC(C)C)C(C)C)C(=O)O [LVGLPL] (H-LVGLPL-OH)
[1]
  IC50: > 2000 µM

## CC(C)C[C@H](NC(=O)[C@H](CCC(N)=O)NC(=O)[C@H](CC(C)C)NC(=O)[C@@H](N)Cc1c[nH]c2ccccc12)C(=O)O [WLQL] (H-WLQL-OH)
[2]
  DPP-IV inhibitory activity, after pre-incubation: 55.28%
  DPP-IV inhibitory activity, without pre-incubation: 53.06%
[1]
  IC50: 433 ± 40.3 µM

## CC(C)C[C@H](NC(=O)[C@H](C)NC(=O)[C@H](CC(C)C)NC(=O)CNC(=O)[C@@H]1CCCN1C(=O)[C@@H](N)C(C)C)C(=O)O [VPGLAL] (H-VPGLAL-OH)
[2]
  DPP-IV inhibitory activity, after pre-incubation: 58.66%
  DPP-IV inhibitory activity, without pre-incubation: 66.14%
[1]
  IC50: 289 ± 11.9 µM

## LPLPL
DPP-IV; peptides from milk
  IC50: 325 µM

## CC(C)C[C@H](N)C(=O)N1CCC[C@H]1C(=O)N[C@@H](CO)C(=O)N[C@@H](Cc1c[nH]c2ccccc12)C(=O)O [LPSW] (H-LPSW-OH)
[2]
  DPP-IV inhibitory activity, after pre-incubation: 55.22%
  DPP-IV inhibitory activity, without pre-incubation: 76.72%
[1]
  IC50: 270 ± 15.9 µM

## CC(C)C[C@H](NC(=O)[C@@H]1CCCN1C(=O)[C@@H](N)CC(C)C)C(=O)N[C@@H](Cc1ccccc1)C(=O)O [LPLF] (H-LPLF-OH)
[2]
  DPP-IV inhibitory activity, after pre-incubation: 41.09%
  DPP-IV inhibitory activity, without pre-incubation: 52.79%
[1]
  IC50: 464 ± 5.52 µM

## GGPASGPAV
DPP-IV; peptides from salmon gelatin
  IC50: 8140 µM
